# Data reported in BindingDB's records for patent US12404295 (Idorsia Pharmaceuticals, 2025).
# Molecular target: Galectin-3 (Homo sapiens, UniProt P17931)
# Experiment: Competitive Binding Assay
# Method: The inhibitory activity of compounds is determined in competitive binding assays. This spectrophotometric assay measures the binding of biotinylated human Gal-3 (hGal-3) or human Gal-1 (hGal-1), respectively, to a microplate-adsorbed glycoprotein, asialofetuin (ASF).Briefly, compounds are serially diluted in DMSO (working dilutions). […] Finally, 25 μL/well of ABTS substrate is added.
# Sequence of Galectin-3 (P17931 whole entry): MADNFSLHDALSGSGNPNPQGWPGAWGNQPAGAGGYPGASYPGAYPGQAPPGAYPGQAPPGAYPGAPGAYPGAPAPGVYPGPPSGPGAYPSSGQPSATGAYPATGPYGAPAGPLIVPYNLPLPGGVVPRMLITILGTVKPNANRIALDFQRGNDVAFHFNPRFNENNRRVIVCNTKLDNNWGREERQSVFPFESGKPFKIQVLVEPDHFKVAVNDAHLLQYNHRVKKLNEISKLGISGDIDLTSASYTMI
row,IC50,SMILES
1,280 nM,"Cc1nc([C@@H](S[C@@H]2O[C@H](CO)[C@H](O)[C@H](n3cc(-c4cc(F)c(F)c(F)c4)nn3)[C@H]2O)C(C)(C)O)c(C)s1 [US12404295, Example 2.31.123R.]"
2,550 nM,"Cc1nc(C(S[C@@H]2O[C@H](CO)[C@H](O)[C@H](n3cc(-c4cc(F)c(F)c(F)c4)nn3)[C@H]2O)C(C)(C)O)c(C)s1 (stereo partly specified) [US12404295, Example 2.31.123.]"
3,60 nM,"OC[C@H]1O[C@@H](S[C@H](c2ccccc2C2CC2)C2(O)CCC(F)(F)CC2)[C@H](O)[C@@H](n2cc(-c3cc(F)c(F)c(F)c3)nn2)[C@H]1O [US12404295, Example 2.44.106R.*]"
4,3900 nM,"CC1(C)C[C@@](O)([C@@H](S[C@@H]2O[C@H](CO)[C@H](O)[C@H](n3cc(-c4cc(F)c(F)c(F)c4)nn3)[C@H]2O)c2ccccc2C(F)(F)F)CCO1 [US12404295, Example 2.43.102SR.]"
5,290 nM,"CC1(C)C[C@@](O)([C@H](S[C@@H]2O[C@H](CO)[C@H](O)[C@H](n3cc(-c4cc(F)c(F)c(F)c4)nn3)[C@H]2O)c2ccccc2C(F)(F)F)CCO1 [US12404295, Example 2.43.102RR.]"
6,7300 nM,"Cc1ccccc1[C@H](S[C@@H]1O[C@H](CO)[C@H](O)[C@H](n2cc(-c3cc(F)c(F)c(F)c3)nn2)[C@H]1O)[C@]1(O)CCOC(C)(C)C1 [US12404295, Example 2.43.112SS.]"
7,57500 nM,"OC[C@H]1O[C@@H](S[C@@H](c2cccc(Cl)c2Cl)C2(O)CCC(F)(F)CC2)[C@H](O)[C@@H](n2cc(-c3cc(F)c(F)c(F)c3)nn2)[C@H]1O [US12404295, Example 2.44.113S.]"
8,3920 nM,"CC1(C)C[C@](O)([C@@H](S[C@@H]2O[C@H](CO)[C@H](O)[C@H](n3cc(-c4cc(F)c(F)c(F)c4)nn3)[C@H]2O)c2ccccc2C(F)(F)F)CCO1 [US12404295, Example 2.43.102SS.]"
9,800 nM,"OC[C@H]1O[C@@H](S[C@H](c2cccc(Cl)c2Cl)C2(O)CCC(F)(F)CC2)[C@H](O)[C@@H](n2cc(-c3cc(F)c(F)c(F)c3)nn2)[C@H]1O [US12404295, Example 2.44.113R.]"
10,4700 nM,"Cc1nc([C@H](S[C@@H]2O[C@H](CO)[C@H](O)[C@H](n3cc(-c4cc(F)c(F)c(F)c4)nn3)[C@H]2O)C(C)(C)O)c(C)s1 [US12404295, Example 2.31.123S.]"
11,320 nM,"OC[C@H]1O[C@@H](SC(c2ncccc2C(F)(F)F)C2(O)CC(F)(F)C2)[C@H](O)[C@@H](n2cc(-c3cc(F)c(F)c(F)c3)nn2)[C@H]1O (stereo partly specified) [US12404295, Example 2.35.125.]"
12,130 nM,"Cc1ccccc1[C@@H](S[C@@H]1O[C@H](CO)[C@H](O)[C@H](n2cc(-c3cc(F)c(F)c(F)c3)nn2)[C@H]1O)[C@]1(O)CCOC(C)(C)C1 [US12404295, Example 2.43.112RS.]"
13,120 nM,"CC1(C)CC(O)(C(S[C@@H]2O[C@H](CO)[C@H](O)[C@H](n3cc(-c4cc(F)c(F)c(F)c4)nn3)[C@H]2O)c2ccccc2C(F)(F)F)CCO1 (stereo partly specified) [US12404295, Example 2.43.102.]"
14,90 nM,"CC1(C)CC(O)([C@H](S[C@@H]2O[C@H](CO)[C@H](O)[C@H](n3cc(-c4cc(F)c(F)c(F)c4)nn3)[C@H]2O)c2ccccc2C(F)(F)F)CC(C)(C)O1 [US12404295, Example 2.42.102R.]"
15,160 nM,"CO[C@@H]1[C@@H](n2cc(-c3cc(F)c(F)c(F)c3)nn2)[C@@H](O)[C@@H](CO)O[C@H]1SC(c1ncccc1C)C1(O)CCOC(C)(C)C1 (stereo partly specified) [US12404295, Example 2.43.126.I.]"
16,110 nM,"CC(C)Cc1c(C(S[C@@H]2O[C@H](CO)[C@H](O)[C@H](n3cc(-c4cc(F)c(F)c(F)c4)nn3)[C@H]2O)C2(O)CCC(F)(F)CC2)noc1C1CC1 (stereo partly specified) [US12404295, Example 2.44.131.]"
17,40 nM,"CC1(C)C[C@](O)([C@H](S[C@@H]2O[C@H](CO)[C@H](O)[C@H](n3cc(-c4cc(F)c(F)c(F)c4)nn3)[C@H]2O)c2ccccc2C(F)(F)F)CCO1 [US12404295, Example 2.43.102RS.]"
18,100 nM,"OC[C@H]1O[C@@H](S[C@H](c2ncccc2C(F)(F)F)C2(O)CC(F)(F)C2)[C@H](O)[C@@H](n2cc(-c3cc(F)c(F)c(F)c3)nn2)[C@H]1O [US12404295, Example 2.35.125R.]"
19,40 nM,"CO[C@@H]1[C@@H](n2cc(-c3cc(F)c(F)c(F)c3)nn2)[C@@H](O)[C@@H](CO)O[C@H]1S[C@H](c1ncccc1C)[C@]1(O)CCOC(C)(C)C1 [US12404295, Example 2.43.126RS.I.]"
20,3000 nM,"OC[C@H]1O[C@@H](S[C@@H](c2ncccc2C(F)(F)F)C2(O)CC(F)(F)C2)[C@H](O)[C@@H](n2cc(-c3cc(F)c(F)c(F)c3)nn2)[C@H]1O [US12404295, Example 2.35.125S.]"
21,1500 nM,"Cc1ccccc1[C@@H](S[C@@H]1O[C@H](CO)[C@H](O)[C@H](n2cc(-c3cc(F)c(F)c(F)c3)nn2)[C@H]1O)[C@@]1(O)CCOC(C)(C)C1 [US12404295, Example 2.43.112RR.]"
22,930 nM,"OC[C@H]1O[C@@H](S[C@@H](c2ccccc2C2CC2)C2(O)CCC(F)(F)CC2)[C@H](O)[C@@H](n2cc(-c3cc(F)c(F)c(F)c3)nn2)[C@H]1O [US12404295, Example 2.44.106S.*]"
23,360 nM,"OC[C@H]1O[C@@H](SC(c2cccc(Cl)c2Cl)C2(O)CCC(F)(F)CC2)[C@H](O)[C@@H](n2cc(-c3cc(F)c(F)c(F)c3)nn2)[C@H]1O (stereo partly specified) [US12404295, Example 2.44.113.]"
24,7820 nM,"CC1(C)CC(O)([C@@H](S[C@@H]2O[C@H](CO)[C@H](O)[C@H](n3cc(-c4cc(F)c(F)c(F)c4)nn3)[C@H]2O)c2ccccc2C(F)(F)F)CC(C)(C)O1 [US12404295, Example 2.42.102S.]"
25,380 nM,"CC1(C)CC(O)(C(S[C@@H]2O[C@H](CO)[C@H](O)[C@H](n3cc(-c4cc(F)c(F)c(F)c4)nn3)[C@H]2O)c2ccccc2C(F)(F)F)CC(C)(C)O1 (stereo partly specified) [US12404295, Example 2.42.102.]"
26,4900 nM,"Cc1ccccc1[C@H](S[C@@H]1O[C@H](CO)[C@H](O)[C@H](n2cc(-c3cc(F)c(F)c(F)c3)nn2)[C@H]1O)[C@@]1(O)CCOC(C)(C)C1 [US12404295, Example 2.43.112SR.]"
